For 18 compounds, EC50 results are on record in patent US9000028B2, “Indole and indazole compounds as an inhibitor of cellular necrosis” (LG Life Sciences Ltd., priority 2007, dated 2015).

One test has as its system brain cells (SK-N-MC). Put plainly: Protective effect when tBHP was treated on brain cells (LDH assay). Type of test: cell-based. To be noted: Homo sapiens, tBHP 400 uM, 6 h. How it is done:
In order to assess the protective effect on brain cells, 2×10^4 brain cells were distributed into the 96-well plate using DMEM media (Gibco, 10% FBS), and incubated for 24 h. The Example compounds were serially diluted by 3-fold to the final concentration of 30, 10, 3, 1, 0.3, 0.1 uM, by which each well was treated for 1 h. Cells were treated with tBHP at the final concentration of 400 uM, and incubated for 6 h. 50 uL of media was taken from each well to proceed with LDH assay (Promega). In LDH assay, 50 uL of media was mixed with 50 uL of assay solution. After the reaction for 30 min at room temperature, absorbance was measured at 490 nm using SpectraMax (Molecular Device).

For another test, the system named is chondrocytes. Put plainly: Protective effect when tBHP was treated on chondrocytes (SRB method). Type of test: cell-based, SD rats. To be noted: Chondrocyte; tBHP 500 uM, 3 h; rat chondrocytes. How it is done: (§1) In order to determine the protective effect on pancreatic cells, Linm5F cells, a sort of the beta cells, were distributed into the 96-well plate in the amount of 2×10^4 cells/well, and incubated for 24 h. The Example compounds were serially diluted by 3-fold to the final concentration of 30, 10, 3, 1, 0.3, 0.1 uM, by which each well was treated for 1 h. Cells were treated with tBHP at the final concentration of 400 uM, and further incubated for 5 h. Protective effects were determined using SRB (Sulforhodamine B Protein) method in which total amount of cellular protein is stained. Briefly, cells were incubated for 5 h, 50 uL of 4% formaldehyde solution was added to each well to fix the cells, and stored for about 30 min at room temperature. After discarding the media, each well was washed with distilled water 2-3 times, and the plate was dried in an oven at 50° C. 50 uL of SRB solution was added to each well, and placed for about 30 min at room temperature. After removing SRB solution, the plate was washed with 1% acetic acid solution 2-3 times. […]
In order to determine the protective effect on chondrocytes, chondrocytes were isolated from 2 hind legs of 16 week-old SD rats (body weight: 450-460 g). […] Protective effect of each compound was determined using the same SRB staining method as in Linm5F of above mentioned 2).

Test [1] deals with primary hepatocytes isolated from rats. As to the kind of experiment: Hepatocyte protective effect against substances deriving hepatocyte toxicity (WST-1 viability). To be noted: Rattus norvegicus, Hepatocyte, doxorubicin, 24-48 h, read-out: EC50, cell protective effects against doxorubicin in hepatocytes. The class given is cell-based. Put shortly: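 Hepatocytes from two-step collagenase perfusion (≥90% viable) seeded on collagen, pretreated 30 min with compound (5-step 2- or 3-fold dilutions from 30, 10 or 1 uM; 0.2% DMSO), then exposed to hepatotoxic agents. WST-1 absorbance at 440 nm after 24-48 h; EC50 = concentration giving 50% of maximal protection.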

Test [2] deals with pancreatic cells (Linm5F). Put plainly: Protective effect when tBHP was treated on pancreatic cells (SRB method). Type of test: cell-based. To be noted: tBHP 400 uM, 5 h. The method, then: (§2) In order to determine the protective effect on pancreatic cells, Linm5F cells, a sort of the beta cells, were distributed into the 96-well plate in the amount of 2×10^4 cells/well, and incubated for 24 h. The Example compounds were serially diluted by 3-fold to the final concentration of 30, 10, 3, 1, 0.3, 0.1 uM, by which each well was treated for 1 h. Cells were treated with tBHP at the final concentration of 400 uM, and further incubated for 5 h. Protective effects were determined using SRB (Sulforhodamine B Protein) method in which total amount of cellular protein is stained. Briefly, cells were incubated for 5 h, 50 uL of 4% formaldehyde solution was added to each well to fix the cells, and stored for about 30 min at room temperature. After discarding the media, each well was washed with distilled water 2-3 times, and the plate was dried in an oven at 50° C. 50 uL of SRB solution was added to each well, and placed for about 30 min at room temperature. After removing SRB solution, the plate was washed with 1% acetic acid solution 2-3 times. After drying the plate in an oven at 50° C., 100 uL of 10 mM Tris was added to elute SRB which was staining the intracellular protein.

In the next test the test system is kidney cells (LLC-PK1). Put plainly: Protective effect when tBHP was treated on kidney cells (SRB method). To be noted: Sus scrofa, tBHP 400 uM, 6 h. Type of test: cell-based. The method, then: as §1
In order to determine the protective effect on kidney cells, 4×10^4 cells were distributed into each well, and incubated for 24 h. […] Protective effect of each compound was determined using the same SRB method as in Linm5F of above mentioned 2).

Test [3] concerns cardiac cells (H9C2, white rat cardiomyocyte). Put plainly: Protective effect when tBHP was treated on cardiac cells (SRB method). The settings on record: tBHP 400 uM, 2 h. Type of test: cell-based. How it is done:
as §2
In order to assess the protective effect on cardiac cells, H9C2 cells were distributed in the amount of 1.5×10^4 cells/well, and incubated for 24 h. The Example compounds were serially diluted by 3-fold to the final concentration of 30, 10, 3, 1, 0.3, 0.1 uM, by which each well was treated for 45 min. Cells were treated with tBHP at the final concentration of 400 uM, and incubated for 2 h. Protective effect of each compound was determined using the same SRB method as in Linm5F of above mentioned 2).

The structures appear in SMILES notation.

With `O=C1CN(Cc2cc(NCC3CCOCC3)c3[nH]c(-c4ccccc4)cc3c2)CCN1` [Example 63, (Tetrahydropyran-4-ylmethyl)-[2-phenyl-5-(2-oxo-piperazin-4-yl)methyl-1H-indol-7-yl]amine], the EC50 in the test with brain cells (SK-N-MC) is ≤ 100 nM; in the test with chondrocytes, ≤ 100 nM; in test [1], 170 nM.

In the case of `O=C1CN(Cc2cc(NC3CCOCC3)c3[nH]c(-c4ccccc4)cc3c2)CCN1` [Example 37, (Tetrahydropyran-4-yl)-[2-phenyl-5-(2-oxo-piperazin-4-yl)methyl-1H-indol-7-yl]amine], the figures for the EC50 (in the test with brain cells (SK-N-MC); in test [1]) were ≤ 100 nM and 150 nM, respectively.

As for `O=S1(=O)CCN(Cc2cc(NCC3CCOCC3)c3[nH]c(-c4ccccc4)cc3c2)CC1` [Example 56, (Tetrahydropyran-4-ylmethyl)-[2-phenyl-5-(1,1-dioxo-thiomorpholin-4-yl)methyl-1H-indol-7-yl]amine], the EC50 is ≤ 100 nM in test [2], 660 nM in the test with kidney cells (LLC-PK1), ≤ 100 nM in the test on chondrocytes and 130 nM in test [1].

Regarding `CS(=O)(=O)N1CCC(Nc2cc(CN3CCS(=O)(=O)CC3)cc3cc(-c4ccccc4)[nH]c23)CC1` [Example 97, (5-(1,1-Dioxo-thiomorpholin-4-yl)methyl-2-phenyl-1H-indol-7-yl)-(1-methanesulfonyl-piperidin-4-yl)-amine], the concentration giving a half-maximal response (EC50) in test [3] is ≤ 200 nM; in test [1] it was 90 nM.

On to `CC(=O)Nc1ccc(-c2cc3cc(N4CCS(=O)(=O)CC4)cc(N(C4CCCC4)C4CCCC4)c3[nH]2)cc1` [Example 86, Dicyclopentyl-{5-(1,1-dioxo-thiomorpholin-4-yl)-2-[4-(acetyl)aminophenyl]-1H-indol-7-yl}-amine], for which the concentration for a half-maximal effect (EC50) is 500 nM in test [3] and 1440 nM in test [1].

With `Cc1ccc(Nc2cc(Cl)cc3c(-c4ccccc4)c[nH]c23)nc1` [Example 115, (5-Chloro-3-phenyl-1H-indol-7-yl)-(5-methyl-pyridin-2-yl)-amine], the EC50 is 260 nM in the test on brain cells (SK-N-MC) and > 2000 nM in test [1].

Regarding `O=C(O)[C@@H]1CCCN1C(=O)c1cc(NC2CCCC2)c2[nH]c(-c3ccccc3)cc2c1` [Example 117, (2S)-1-(7-cyclopentylamino-2-phenyl-1H-indole-5-carbonyl)-pyrrolidine-2-carboxylic acid], the EC50 in test [3] was ≤ 200 nM; in test [1], 260 nM.

On to `Cc1cc(N(C)C2CCOCC2)c2[nH]c(-c3ccccc3)cc2c1` [Example 55, (Tetrahydropyran-4-yl)-(5-methyl-2-phenyl-1H-indol-7-yl)-methyl-amine], for which the EC50 with brain cells (SK-N-MC) was ≤ 100 nM; in test [1] it was 300 nM.

On to `O=S1(=O)CCN(Cc2cc(NCC3CCOCC3)c3[nH]c(-c4ccccc4)c(Br)c3c2)CC1` [Example 74, (Tetrahydropyran-4-ylmethyl)-(3-bromo-5-(1,1-dioxo-thiomorpholin-4-yl)methyl-2-phenyl-1H-indol-7-yl)-amine], for which the EC50 in test [3] was ≤ 200 nM; in test [1] it was 350 nM.

Regarding `O=C(O)CNc1cc(F)cc2cc(-c3ccccc3)[nH]c12` [Example 107, 2-(5-Fluoro-2-phenyl-1H-indol-7-yl)amino-acetic acid], the values for the concentration giving a half-maximal response (EC50) in test [2] and in test [1] were ≤ 100 nM and 350 nM, respectively.

As to `COC(=O)CNc1cc(F)cc2cc(-c3ccccc3)[nH]c12` [Example 106, 2-(5-Fluoro-2-phenyl-1H-indol-7-yl)amino-acetic acid methyl ester], the concentration giving a half-maximal response (EC50) in test [2] is ≤ 100 nM; in test [1], 450 nM.

For the compound `CS(=O)(=O)Nc1ccc(-c2cc3cc(Cl)cc(NC4CCCC4)c3[nH]2)cc1` [Example 84, N-[4-(5-chloro-7-cyclopentylamino-1H-indol-2-yl)-phenyl]methanesulfonamide], the concentration for a half-maximal effect (EC50) in test [1] is 90 nM.

Consider `O=C(O)Cc1cc(NC2CCCC2)c2[nH]c(-c3ccccc3)cc2c1` [Example 33, 2-[7-(Cyclopentyl)amino-2-phenyl-1H-indol-5-yl]acetic acid], for which the EC50 in test [1] was determined as 150 nM.

As to `O=C(Cc1cc(NC2CCCC2)c2[nH]c(-c3ccccc3)cc2c1)N1CCCC1` [Example 119, 2-(7-Cyclopentylamino-2-phenyl-1H-indol-5-yl]-1-pyrrolidin-1-yl-ethanone], the EC50 in test [1] was 140 nM.

`Clc1cc(Nc2ccccn2)c2[nH]c(-c3ccccc3)cc2c1` [Example 113, (5-Chloro-2-phenyl-1H-indol-7-yl)-pyridin-2-yl-amine]: the 50% effective concentration (EC50) in test [1] was 350 nM.

On to `OCc1ccc(-c2cc3cc(Cl)cc(NC4CCCC4)c3[nH]2)cc1` [Example 136, [4-(5-Chloro-7-cyclopentylamino-1H-indol-2-yl)-phenyl]-methanol], for which the EC50 in test [1] was 50 nM.

On to `O=S1(=O)CCN(Cc2cc(N(C3CCOCC3)C3CCOCC3)c3[nH]c(-c4ccccc4)cc3c2)CC1` [Example 58, Di(tetrahydropyran-4-yl)-[2-phenyl-5-(1,1-dioxo-thiomorpholin-4-yl)methyl-1H-indol-7-yl]amine], for which the half-maximal effective concentration (EC50) in test [1] worked out at 260 nM.

Take `O=C1CN(CCc2cccc(-c3cc4cc(Cl)cc(NC5CCOCC5)c4[nH]3)c2)CCN1` [Example 151, {5-Chloro-2-[3-(2-oxo-piperazin-4-yl)ethylphenyl]-1H-indol-7-yl}-(tetrahydropyran-4-yl)-amine]: the EC50 in test [1] is > 2000 nM.
